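Five concentrations, 48 hours, 96-well plates. At the GI50, growth is halved.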 Calls of active or inactive are those of the source. Rule as the data show it: active = GI50 up to about 1.1 µM and inactive = higher.
Columns and labels:
Experiment in all cases: NCI tumour cell line growth inhibition, 48 h
M14 = tested on: M14
SK-OV-3 = tested on: SK-OV-3
PC-3 = tested on: PC-3
U-251 = tested on: U-251
CCRF-CEM = tested on: CCRF-CEM
NCI-H522 = tested on: NCI-H522
NCI-H23 = tested on: NCI-H23
Hs-578T = tested on: Hs-578T
MDA-MB-435 = tested on: MDA-MB-435
ACHN = tested on: ACHN
OVCAR-4 = tested on: OVCAR-4
MDA-MB-231 = tested on: MDA-MB-231
T47D = tested on: T47D
NCI/ADR-RES = tested on: NCI/ADR-RES
CAKI-1 = tested on: CAKI-1

| SMILES | GI50 (M14) | GI50 (SK-OV-3) | GI50 (PC-3) | GI50 (U-251) | GI50 (CCRF-CEM) | GI50 (NCI-H522) | GI50 (NCI-H23) | GI50 (Hs-578T) | GI50 (MDA-MB-435) | GI50 (ACHN) | GI50 (OVCAR-4) | GI50 (MDA-MB-231) | GI50 (T47D) | GI50 (NCI/ADR-RES) | GI50 (CAKI-1) |
| --- | --- | --- | --- | --- | --- | --- | --- | --- | --- | --- | --- | --- | --- | --- | --- |
| COC1(OC)C2(Cl)C(Cl)=C(Cl)C1(Cl)C1COCC12 (configuration not stated) | > 100 µM (inactive) | > 100 µM (inactive) | > 100 µM (inactive) | > 44.5 µM (inactive) | > 100 µM (inactive) | > 100 µM (inactive) | > 45 µM (inactive) | > 100 µM (inactive) | 30.8 µM (inactive) | > 100 µM (inactive) | > 100 µM (inactive) | > 100 µM (inactive) | > 100 µM (inactive) | > 100 µM (inactive) | > 100 µM (inactive) |
| CCOC(=O)c1cc(-c2ccc(OC)c(OC)c2)cn1C | > 10 µM (inactive) | > 10 µM (inactive) | > 10 µM (inactive) | > 10 µM (inactive) | > 10 µM (inactive) | > 10 µM (inactive) | > 10 µM (inactive) | 7.03 µM (inactive) | > 10 µM (inactive) | > 10 µM (inactive) | > 10 µM (inactive) | > 10 µM (inactive) | > 10 µM (inactive) | > 10 µM (inactive) | > 10 µM (inactive) |
| Cc1ccc(-c2cc(=O)c(=O)[nH][nH]2)cc1 | > 100 µM (inactive) | > 100 µM (inactive) | > 100 µM (inactive) | > 100 µM (inactive) | > 100 µM (inactive) | 36.9 µM (inactive) | > 100 µM (inactive) | 68.4 µM (inactive) | > 100 µM (inactive) | > 100 µM (inactive) | > 100 µM (inactive) | > 100 µM (inactive) | > 100 µM (inactive) | > 100 µM (inactive) | > 100 µM (inactive) |
| c1ccc(C2=C(c3ccccc3)Sc3nnc(CCCCCCCCc4nnc5n4NC(c4ccccc4)=C(c4ccccc4)S5)n3N2)cc1 | 29.8 µM (inactive) | > 100 µM (inactive) | 41.4 µM (inactive) | 45.2 µM (inactive) | 20.9 µM (inactive) | 51.2 µM (inactive) | 49 µM (inactive) | 73.5 µM (inactive) | 34.9 µM (inactive) | 53.8 µM (inactive) | 39.2 µM (inactive) | 95.9 µM (inactive) | 24.7 µM (inactive) | 45.8 µM (inactive) | > 100 µM (inactive) |
| CN1CCC2(CC1)SC[C@H]1C(=O)N(c3ccc(Cl)cc3)C(=O)N12 | > 100 µM (inactive) | > 100 µM (inactive) | > 100 µM (inactive) | > 100 µM (inactive) | > 100 µM (inactive) | > 100 µM (inactive) | > 100 µM (inactive) | > 100 µM (inactive) | 43.7 µM (inactive) | 25.9 µM (inactive) | > 100 µM (inactive) | > 100 µM (inactive) | > 100 µM (inactive) | > 100 µM (inactive) | > 100 µM (inactive) |
| CC(C)(C)[Si](C)(C)O[C@@H](C(=O)OC1C=CCCC1)[C@@H](NC(=O)c1ccccc1)c1ccccc1 (some centres not stated) |  | 84.1 µM (inactive) | 9.1 µM (inactive) | 18.2 µM (inactive) | 12.1 µM (inactive) | 16.6 µM (inactive) | 29 µM (inactive) | 53.6 µM (inactive) | 29.3 µM (inactive) | 19.1 µM (inactive) | 21.5 µM (inactive) | 19.1 µM (inactive) | 20 µM (inactive) | 28.6 µM (inactive) | 48.6 µM (inactive) |
| Cc1ccc(NC(=O)c2cc3ccccc3c(/N=N/c3cc(S(=O)(=O)O)ccc3O)c2O)c(C)c1 | 7.43 µM (inactive) | 20 µM (inactive) | 14.5 µM (inactive) | 4.33 µM (inactive) | 3.3 µM (inactive) | 25.4 µM (inactive) | 16.6 µM (inactive) | 31.6 µM (inactive) | 19.7 µM (inactive) | 5.97 µM (inactive) | 12.7 µM (inactive) | 26.1 µM (inactive) | 24.7 µM (inactive) | 25.6 µM (inactive) | 32.5 µM (inactive) |
| CN(CCCN=C=S)CCCN1c2ccccc2CCc2ccccc21 | 1.71 µM (inactive) | 1.63 µM (inactive) | 1.69 µM (inactive) | 1.81 µM (inactive) | 1.85 µM (inactive) | 1.95 µM (inactive) | 1.64 µM (inactive) | 2.04 µM (inactive) | 1.79 µM (inactive) | 1.75 µM (inactive) | 1.85 µM (inactive) | 1.8 µM (inactive) | 2.07 µM (inactive) | 1.29 µM (inactive) | 1.73 µM (inactive) |
| COc1cc(C2c3cc4c(cc3[C@@H](Nc3ccc(F)cc3)C3COC[C@H]23)OCO4)cc(OC)c1O (some centres not stated) | 2.22 µM (inactive) | 4.98 µM (inactive) | 3.26 µM (inactive) | 0.811 µM (active) | 0.622 µM (active) | 3.22 µM (inactive) |  | 0.589 µM (active) | 6.15 µM (inactive) | 1.03 µM (active) | 11.7 µM (inactive) | 2.74 µM (inactive) | 1.74 µM (inactive) | 6.92 µM (inactive) |  |
